Test results as given in EP0354522A1, “Use of alpha-aminoboronic acid derivatives in prevention and treatement of viral diseases” (HOECHST AKTIENGESELLSCHAFT, priority 1988, dated 1990).

Target: T1, HIV-Protease (Human immunodeficiency virus type 1 group M subtype B, UniProt P04585)
T1 construct: Max-Planck-Institut für Molekulare Genetik, Berlin
Experiment: HIV protease test (cleavage of heptapeptide Ser-Phe-Asn-Phe-Pro-Gln-Ile, HPLC quantification of Ser-Phe-Asn-Phe)
Assay type: biochemical
Conditions: 2 h, 37°C; for activity at 100 µM / Restakt. bei 10^-4 M: residual enzyme activity at 10^-4 M inhibitor, 100 % = mean of runs without inhibitor, pH ca. 6,0, 1 % DMSO; for activity at 100 µM: read-out: Restakt. bei 10^-4 M; for IC50: cloned HIV protease, pH ca. 6,0; for Restakt. bei 10^-4 M: 100 µM
From the text: Als synthetisches Substrat ist ein Heptapeptid der Sequenz Ser-Phe-Asn-Phe-Pro-Gln-Ile geeignet. Diese Sequenz tritt im natürlichen Substrat der Protease auf und liefert bei der autokatalytischen Freisetzung nach einer Phe-Pro-Spaltung den N-terminalen Beginn der Proteasesequenz (Pro-Gln-Ile...).
Es wird eine klonierte HIV-Protease (Max-Planck-Institut für Molekulare Genetik, Berlin) benutzt. [drawing 5]
Von den Reaktionsprodukten wird Ser-Phe-Asn-Phe zur Abtrennung und quantitativen Bestimmung mittels HPLC herangezogen.
Nach 2 Stunden bei 37°C werden die Ansätze mit 225 µl HPLC-Elutionsmittel (s.u.) gestoppt. Etwa 150 µl des zentrifugierten Überstands (Eppendorf-Zentrifuge) werden in Mikrovials gefüllt. Das Injektionsvolumen für die HPLC-Trennung beträgt 20 µl. Ser-Phe-Asn-Phe wird durch Vergleich mit einem externen Standard bekannter Konzentration (0,5 µg/ 20 µl) quantitativ bestimmt und stellt die Meßgröße der Enzymaktivität (µg Tetrapeptid pro 20 µl Meßprobe) dar. Bezugswert (= 100 % Enzymaktivität) ist der Mittelwert aus 2 oder mehr Ansätzen ohne Inhibitor. Als Standard-Inhibitor wird Pepstatin A (10⁻⁴ oder 10⁻⁵ M) verwendet.
• a) Substratlösung: 2 mg Ser-Phe-Asn-Phe-Pro-Gln-Ile werden in 1 ml MGTE 15-Puffer gelöst. • b) Testsubstanzen: Diese werden 10⁻² oder 10⁻³ M in Dimethylsulfoxid (DMSO) gelöst und 1 : 40 mit MGTE 15-Puffer verdünnt; 10 µl dieser Lösung werden pro Ansatz verwendet; die Endkonzentration des Präparates beträgt 10⁻⁴ bzw. 10⁻⁵ M; die DMSO-Konzentration in allen Testansätzen ist 1 %. Für IC₅₀-Bestimmungen wird das Präparat, ausgehend von 10⁻² M, mit 100 % DMSO in der geeigneten Weise verdünnt. • c) Proteaselösung: Das Enzym wird mit MGTE 25-Puffer auf eine geeignete Konzentration verdünnt. • d) MGTE 15/25-Puffer 20 mM Morpholinoethansulfonsäure (MES) 15 (25) % (w/v) Glyzerin 0,1 % (v/v) Triton® X 100 (vgl. Merck Index 10, 6601) 5 mM EDTA 0,5 M NaCl 1 mM Dithiothreit (nur für MGTE 25) 1 mM Phenylmethylsulfonylfluorid (PMSF) Der pH-Wert soll ca. 6,0 betragen. • e) HPLC-Elutionsmittel: Eine 0,1 M Phosphorsäure-Lösung wird mit Triethylamin auf pH 2,5 eingestellt. Aus dieser Lösung wird ein Phosphorsäure-Acetonitril-Gemisch mit 22,6 Gewichts-Prozent Acetonitril hergestellt.
Säule: Radial Pak LC Cartridge, 8 mm/C18, 5 µ (der Fa. Waters, USA). Fluß: 1 ml/min Detektoreinstellung: 215 nm, 0,08 AU Zeit pro Analyse: 12 min; Retentionszeiten: Heptapeptid ca. 9,5 min, Tetrapeptid ca. 5,2 min Laufmittel: 77,4 Gew.-% 0,1 M H₃PO₄/pH 2,5 22,6 Gew.-% Acetonitril

activity at 100 µM [%] | IC50 [µM] | Restakt. bei 10^-4 M [%] | Compound
53 |  |  | CCC[C@H](NC(=O)C(Cc1ccccc1)CS(=O)(=O)C(C)(C)C)C(=O)NC(B1OC(C)(C)C(C)(C)O1)C(C)CC (stereo partly shown) [Beispiel 50, (2-Benzyl,3-t-butylsulfonyl)propionyl-Nva-[2-Methyl,1-(4,4,5,5-tetramethyl-1,3,2-dioxaborolan-2-yl)]butylamid]
5 | 5 |  | CC(C)[C@H](NC(=O)C(Cc1cccc2ccccc12)CS(=O)(=O)C(C)(C)C)C(=O)NC(CC1CCCCC1)B1OC(C)(C)C(C)(C)O1 (stereo partly shown) [Beispiel 51, [3-t-Butylsulfonyl, 2-(1-naphthylmethyl)]propionyl-Val-[cyclohexylmethyl,(4,4,5,5-tetramethyl-1,3,2-dioxaborolan-2-yl)]methylamid]
49 | 100 |  | CC1(C)OB(C(CC2CCCCC2)NC(=O)[C@H](CC(N)=O)NC(=O)C(Cc2cccs2)CS(=O)(=O)C(C)(C)C)OC1(C)C (stereo partly shown) [Beispiel 52, [3-t-Butylsulfonyl, 2-(2-thienylmethyl)]propionyl-Asn-[cyclohexylmethyl,(4,4,5,5-tetramethyl-1,3,2-dioxaborolan-2-yl)]-methylamid]
10 | 10 |  | CC1(C)OB(C(CC2CCCCC2)NC(=O)[C@H](CC(N)=O)NC(=O)C(Cc2cccc3ccccc23)CS(=O)(=O)C(C)(C)C)OC1(C)C (stereo partly shown) [Beispiel 53, [3-t-Butylsulfonyl,2-(1-naphthylmethyl)]propionyl-Asn-[cyclohexylmethyl,(4,4,5,5-tetramethyl-1,3,2-dioxaborolan-2-yl)]methylamid]
 | 40 | 25 | (2-Benzyl,3-t-butylsulfonyl)propionyl-Nva-(Cyclopentylmethyl,dihydroxyboryl)methylamid [Beispiel 32]
 | 7 | 7 | (2-Benzyl,3-t-butylsulfonyl)propionyl-Val-(Cyclohexylmethyl,dihydroxyboryl)methylamid [Beispiel 28]
 |  | 77 | (3-t-Butylsulfonyl)propionyl-Nva-(1-Naphthylmethyl, dihydroxyboryl)methylamid [Beispiel 27]
 |  | 41 | Iva-Phe-Nva-[Cyclohexylmethyl,[(N-B)-(2,2′-iminodiethanolato)-boryl]]methylamid [Beispiel 6]
 |  | 35 | Iva-Phe-Nva-[Cycloundecylmethyl, (4,4,5,5-tetramethyl-1,3,2-dioxaborolan-2-yl)]methylamid [Beispiel 13]

More lines, now with the values behind:

Compound | activity at 100 µM [%] | IC50 [µM] | Restakt. bei 10^-4 M [%]
Iva-Phe-His-(Cyclooctylmethyl,dihydroxyboryl)methylamid [Beispiel 24] |  |  | 78
Iva-Phe-Nva-(Cyclohexylmethyl,dihydroxyboryl)methylamid [Beispiel 5] |  | 70 | 38
Iva-Phe-Nva-(Cyclooctylmethyl,dihydroxyboryl)methylamid [Beispiel 20] |  |  | 27
Iva-Thi-His-(Cyclohexylmethyl,dihydroxyboryl)methylamid [Beispiel 9] |  |  | 93
[3-t-Butylsulfonyl,2,(2-thienylmethyl)]propionyl-Thi-(Cyclohexylmethyl,dihydroxyboryl)methylamid [Beispiel 31] |  |  | 59
[3-t-Butylsulfonyl,2-(2-thienylmethyl)]propionyl-Nva-(Cyclohexylmethyl,dihydroxyboryl)methylamid [Beispiel 30] |  |  | 52
[3-t-Butylsulfonyl,2-(2-thienylmethyl)]propionyl-Thi-(Cycloheptylmethyl,dihydroxyboryl)methylamid [Beispiel 33] |  |  | 61
